“Also recorded” adds a separate entry of the source.
Tests used:
[1] = test system: MLS 128 (IgG) anti-Tn monoclonal antibody; format: binding, mouse
[2] = test system: Tn3G6K(Biot)G glycopeptide; design: species or system BALB/c mice; settings: mouse, in vivo
[3] = test system: T cell hybridoma 45G10 specific for PV; format: cell-based
STTG6K(Biot)G peptide = test system: STTG6K(Biot)G peptide; design: species or system BALB/c mice; settings: mouse, in vivo
MLS128 mAb = format: binding, mouse
[4] = test system: human Jurkat tumor cell line; settings: in vivo
[5] = test system: T cell hybridomas 45G10 (specific for 103-115 poliovirus peptide); format: cell-based
lymph node (LN) cells = test system: lymph node (LN) cells; design: species or system BALB/c mice; settings: mouse, in vivo, sc
Tn antigen (BT-TT1) = test system: Tn antigen (BT-TT1); design: species or system BALB/c mice; settings: mouse, in vivo

Row | Substance | recognition of the Tn motif by the MLS 128 mAb, direct ELISA [1] | anti-Tn IgG antibodies [2] | stimulation of the 45G10 T cell hybrid [3] | sera binding to unglycosylated STTG6K(Biot)G peptide (STTG6K(Biot)G peptide) | inhibition of MLS128 binding to Tn3G6K(Biot)G (MLS128 mAb) | other results
1 | (S*T*T*G)2KLFAVWKITYKDT [Tn6-PV] | efficiently recognized | induced anti-Tn IgG antibodies | stimulate | No sera binding was observed | significant enhancement of the antigenicity | anti-Tn IgM antibodies [2]: detected; increase of antigenicity of the T cell epitope compared to unglycosylated PV peptide [3]: ~100 fold; binding of sera to Jurkat cells [4]: bound this human cell line; recognition of Jurkat cells / antibody production relative to Tn3-PV [4]: better; also recorded: significant benefit
2 | KLFAVWKITYKDT [PV, reference compound] | are not | no Tn specific antibodies were detected | stimulate | No sera binding was observed |  | recognition by PV-specific T-cell hybridoma [5]: recognize; proliferative T response specific for the T epitope (lymph node (LN) cells): induce in vivo a proliferative T response; induction of anti-Tn antibodies (Tn antigen (BT-TT1)): not
3 | S*T*T*QYIKANSKIGITEL [Tn3-TT] | efficiently recognized |  |  |  | only slightly affected | 
4 | STTGGGGGGKG [STTG6KG, reference compound] |  |  |  |  |  | competition with a-OSM for MLS 128 binding (MLS128 mAb): does not
5 | αGalNac-Ser [B] |  |  |  |  |  | stimulation of IL-2 production by the T hybridoma [5]: do not stimulate

Reference: US6676946B2 (priority 1997, dated 2004)
